{
  "source": "patent US20210038545A1",
  "about": "(priority 2018, published 2021)",
  "key": {"S. pneumoniae [1]": {"system": "S. pneumoniae", "settings": "mouse, in vivo"}, "S. pneumoniae [2]": {"system": "S. pneumoniae", "settings": "mice colonized with IAV microbiota; 30 hrs after challenge; FIG. 4A"}, "S. pneumoniae [3]": {"system": "S. pneumoniae", "settings": "IAV (H3N2)-infected mice as printed; acetate from day 2 p.i.; 1×10^3 CFUs at 7 dpi; 30 hrs later; FIG. 4B"}, "[4]": {"system": "respiratory bacterial (including pneumococcal) and fungal infections", "settings": "Ciarlo et al., 2016; cited from earlier work"}},
  "data": [
    {"smiles": "CC(=O)O", "note": "[acetate]", "values": [
      {"measurement": "bacterial loads in the lung", "setting": "S. pneumoniae [1]", "result": "significantly reduced"},
      {"measurement": "bacterial loads in the spleen", "setting": "S. pneumoniae [1]", "result": "significantly reduced"},
      {"measurement": "survival rate of double-infected mice", "setting": "S. pneumoniae [1]", "result": "significant enhancement"},
      {"measurement": "number of pneumococci in lungs", "setting": "S. pneumoniae [2]", "result": "lower number"},
      {"measurement": "systemic dissemination of pneumococci out of the lungs", "setting": "S. pneumoniae [2]", "result": "lowered"},
      {"measurement": "protective effect of acetate in Ffa2−/− mice", "setting": "S. pneumoniae serotype 1; Ffa2−/− mice relative to FFA2-competent mice, FIG. 1B", "result": "significantly reduced"},
      {"measurement": "number of bacteria in the spleen", "setting": "S. pneumoniae serotype 1; acetate 200 mM drinking water for five days before 1×10^6 CFUs i.n., 30 hours after challenge, FIG. 1A lower panel", "result": "lowered"},
      {"measurement": "number of bacteria in the lungs", "setting": "S. pneumoniae serotype 1; acetate 200 mM drinking water for five days before 1×10^6 CFUs i.n., 30 hours after challenge, vs vehicle, FIG. 1A upper panel", "result": "significantly reduced"},
      {"measurement": "bacterial load in the lung", "setting": "S. pneumoniae [3]", "result": "significant lower"},
      {"measurement": "bacterial load in the spleen", "setting": "S. pneumoniae [3]", "result": "significant lower"}
    ]},
    {"smiles": "CCC(=O)O", "note": "[propionate]", "values": [
      {"measurement": "modulation of host defenses against respiratory bacterial and fungal infections", "setting": "[4]", "result": "failed to modulate"}
    ]}
  ]
}
